# Laboratory results published in patent US8980904B2, “Heterocyclic substituted pyrimidine compound” (Xuanzhu Pharma Co., Ltd., priority 2011, dated 2015).
# Where “and” joins values, the source holds several entries; their conditions need not be identical. Equal entries are not always repeated. Where two headings read alike, the source gives them in different places.
# Legend:
# [1] = target: PDE-5A (Homo sapiens (Human), UniProt O76074); assay: Caliper Mobility-Shift PDE-5A Assay; format: biochemical
# Experimental: Caliper Mobility-Shift PDE-5A Assay:
# A sample to be tested is precisely weighed, dissolved by adding DMSO, mixed sufficiently to form 10 mM solution.
# The maximum final concentration of the compound was 10 μM. After incubation at 30° C. for 1 h, 20 μl of 70 μM EDTA was added to terminate reaction. Substrate and products were separated and analyzed by electrophoresis. Conversion rate was calculated by Caliper's Reviewer software, and inhibition rate was calculated by the following formulation, and IC50 was calculated from inhibition rate using Prism 5.0. Inhibition rate=[conversion rate (ZPE)−conversion rate (sample)]×100/[conversion rate (ZPE)−conversion rate (HPE)]
# Notation: HPE: blank control without adding enzyme; ZPE: blank control without adding compound.
# [2] = test system: New Zealand rabbits; assay: Effects on penis length (AUC) by intravenous administration in New Zealand rabbits; format: in vivo; conditions: 10 mg/kg IV, sodium nitroprusside 0.2 mg/kg IV 5 min after administration
# From the text: New Zealand rabbits were subjected to adapt environment, and the rabbits were catched everyday before experiment so that the rabbits were used to repeated catching operation, then administration and stimulation were lunched. The animals were randomly divided according to bodyweight, samples to be tested were separately dissolved with solvent (Table 3 group: Avanafil and Compound 19 were separately dissolved with 5% DMSO+30% Cremophor EL+65% water for injection; Table 4 group, Table 5 group: Avanafil, Compound 14, Compound 17 and Compound 7 were separately dissolved with 45% DMA+20% Cremophor EL+35% water for injection; Table 6 group: Avanafil and Compound 15 were separately dissolved with 30% DMF+50% PEG-400+20% water for injection), corresponding samples to be tested were injected via ear flange veins of these groups, Table 3, Table 4, Table 5, Table 6 groups all had dose of 10 mg/kg, administration volume of 2 ml/kg, 0.2 mg/kg of sodium nitroprusside was intravenously injected in administration volume of 0.5 ml/kg after 5 min of administration.
# Lengths of penis of rabbits were measured by digital vernier caliper separately before administration and at 5, 10, 15, 30, 50, 60, 90 and 120 min after administration. During each measurement, touching between penis and vernier caliper should be avoided.
# [3] = test system: PDE-6; conditions: background art, cited from earlier work
# [4] = cited from earlier work
# [5] = target: PDE-11 (Homo sapiens (Human), UniProt Q9HCR9); conditions: background art; cited from earlier work
# Sequence of PDE-11 (Q9HCR9 whole entry): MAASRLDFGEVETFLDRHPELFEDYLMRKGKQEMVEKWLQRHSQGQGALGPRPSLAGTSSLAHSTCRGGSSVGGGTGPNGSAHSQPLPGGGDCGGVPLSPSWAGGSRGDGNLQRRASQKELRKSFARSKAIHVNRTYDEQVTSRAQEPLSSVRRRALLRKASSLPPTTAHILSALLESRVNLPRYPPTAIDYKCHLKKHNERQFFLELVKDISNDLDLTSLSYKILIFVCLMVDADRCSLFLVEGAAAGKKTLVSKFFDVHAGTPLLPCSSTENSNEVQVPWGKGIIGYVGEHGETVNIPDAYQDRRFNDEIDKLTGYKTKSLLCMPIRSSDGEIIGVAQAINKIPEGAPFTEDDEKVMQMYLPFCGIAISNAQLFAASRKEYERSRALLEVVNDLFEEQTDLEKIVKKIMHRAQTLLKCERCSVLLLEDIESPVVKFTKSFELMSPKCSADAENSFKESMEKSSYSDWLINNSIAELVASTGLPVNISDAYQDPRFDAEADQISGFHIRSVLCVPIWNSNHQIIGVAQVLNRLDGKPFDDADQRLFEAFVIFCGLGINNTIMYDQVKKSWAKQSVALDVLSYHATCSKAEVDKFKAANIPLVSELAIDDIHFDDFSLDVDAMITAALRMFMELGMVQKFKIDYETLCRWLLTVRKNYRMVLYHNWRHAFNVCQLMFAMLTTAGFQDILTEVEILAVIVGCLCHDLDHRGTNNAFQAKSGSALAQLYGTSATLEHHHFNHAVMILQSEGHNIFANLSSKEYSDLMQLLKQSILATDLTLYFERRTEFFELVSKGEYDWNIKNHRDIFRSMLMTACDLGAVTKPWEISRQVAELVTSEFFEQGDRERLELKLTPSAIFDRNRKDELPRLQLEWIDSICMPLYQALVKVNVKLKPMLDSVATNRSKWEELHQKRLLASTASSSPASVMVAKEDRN
# [6] = Determination of half-life in SD rats (IV and PO, plasma LC-MS/MS); conditions: Sprague-Dawley (SD), rat
# Experimental: (§1) Avanafil as control drug and the compounds of the present invention (self-made) were dissolved with suitable solvents.
# Instruments: API4000 LC-MS/MS
# (§2) Chromatography column: Agilent XDB C18 (2.1×50 mm, 5 μm)
# (§3) Blood sampling in rats: animals were fixed, tails were heated with water-bath at 10 min before each time point, about 100 μl of blood was collected via caudal vein, and the collected blood samples were placed in heparin sodium-containing anticoagulation tubes. The blood samples were centrifuged at 4° C. and 8,000 rpm for 6 min to obtain blood plasma samples, in which the blood plasma samples should be prepared with 30 min after blood sampling. The blood plasmas were stored in refrigerator with −80° C.
# (§4) (1) Samples to be tested were taken out from refrigerator (−80° C.), melt at room temperature, then subjected to volution for 5 min;
# (§5) (2) 20 μl of sample was precisely moved to 1.5 ml centrifuge tube;
# (§6) (3) 200 μl of internal standard solution was added;
# (§7) (4) After 5 min of volution, 5 min of centrifugation (12,000 rpm) was carried out;
# (§8) (5) 100 μl of supernatant was precisely taken, 100 μl of water was added, subjected to volution for 5 min, and analyzed by LC-MS/MS.
# (§9) Concentrations of samples to be tested (blood plasma samples) were the output results of Analyst 1.5.1 of AB SCIEX (Shanghai Aibocaisi Analytical Instruments Trading Co., Ltd.). Mean values, standard deviations and parameters such as variable coefficients were calculated by Microsoft Excel (when parameters were directly given by Analyst 1.5.1, they were not calculated). PK parameters were calculated using Pharsight Phoenix 6.1 software.
# [7] = rat, in vivo, 2 mg/kg
# Experimental: as §1
# Instruments: API4000 LC-MS/MS
# as §2, §3, §4, §5, §6, §7, §8, §9
# [8] = in vivo; conditions: Sprague-Dawley (SD), rat, iv, 1 mg/kg
# Experimental: as §1
# Instruments: API4000 LC-MS/MS
# as §2, §3, §4, §5, §6, §7, §8, §9
# [9] = Table 3 group, 5% DMSO+30% Cremophor EL+65% water for injection
# [10] = Table 4 group, 45% DMA+20% Cremophor EL+35% water for injection
# [11] = Table 5 group, 45% DMA+20% Cremophor EL+35% water for injection
# [12] = Table 6 group, 30% DMF+50% PEG-400+20% water for injection
# [13] = test compound, read-out: IC50 values for PDE-5A, PDE-5A
"IC50 [1, 13] [nM]",Structure (SMILES),"half-life ([6]; iv, 1 mg/kg) [h]",further results
–,"COc1ccc(CN=c2[nH]c(N3CCC[C@H]3CO)ncc2C(=O)NCc2ncccn2)cc1Cl [Avanafil, reference compound]",–,"IC50 ([1]; Avanafil control value given, read-out: IC50 values for PDE-5A, Avanafil/PDE-5A): 10.8 nM (11×) and 19.2 nM and 12.7 nM (2×) and 17.3 nM (4×); Effects on penis length, AUC (mm × min) [2, 9]: 155.1 mm × min; Effects on penis length, AUC (mm × min) [2, 10]: 132.3 mm × min; Effects on penis length, AUC (mm × min) [2, 11]: 168.3 mm × min; Effects on penis length, AUC (mm × min) [2, 12]: 146.4 mm × min; ratio of PDE-6/5 ([3]; selectivity): about 120; half-life in human body [4]: about 1.2 h; inhibition of PDE-11 [5]: does not inhibit PDE-11; half-life ([6]; iv, 2 mg/kg): 0.53 h; half-life ([6]; po, 2 mg/kg): 0.51 h"
0.172,"COc1ccc(COc2nc(N3CC4CC4C3)ncc2C(=O)NCc2ccccc2)cc1Cl (stereo not drawn) [Compound 1, N-benzyl-2-(3-azadicyclo[3.1.0]hexan-3-yl)-4-(3-chloro-4-methoxybenzyloxy) pyrimidine-5-carboxamide]",3.96,–
0.1,"COc1ccc(COc2nc(N3CC4CC4C3)ncc2C(=O)NCc2ncccn2)cc1Cl (stereo not drawn) [Compound 3, 2-(3-azadicyclo[3.1.0]hexan-3-yl)-4-(3-chloro-4-methoxy-benzyloxy)-N-(pyrimidin-2-ylmethyl)pyrimidine-5-carboxamide]",–,–
0.028,"COc1ccc(COc2nc(N3CC4CC4C3)ncc2C(=O)NCc2ccccn2)cc1Cl (stereo not drawn) [Compound 4, 2-(3-azadicyclo[3.1.0]hexan-3-yl)-4-(3-chloro-4-methoxybenzyloxy)-N-(pyridin-2-ylmethyl)pyrimidine-5-carboxamide]",0.66,–
0.529,"COc1ccc(COc2nc(N3CC4CC4C3)ncc2C(=O)NCc2cnc(C)cn2)cc1Cl (stereo not drawn) [Compound 5, 2-(3-azadicyclo[3.1.0]hexan-3-yl)-4-(3-chloro-4-methoxy-benzyloxy)-N-[(5-methylpyrazin-2-yl)methyl]pyrimidine-5-carboxamide]",–,–
0.075,"COc1ccc(COc2nc(N3CC4CC4C3)ncc2C(=O)NCc2ccc(F)cc2)cc1Cl (stereo not drawn) [Compound 6, 2-(3-azadicyclo[3.1.0]hexan-3-yl)-4-(3-chloro-4-methoxy-benzyloxy)-N-(4-fluorobenzyl)pyrimidine-5-carboxamide]",1.74,–
0.739,"COc1ccc(COc2nc(N3CC4CC4C3)ncc2C(=O)N[C@H]2CC[C@H](O)CC2)cc1Cl (stereo partly drawn) [Compound 7, 2-(3-azadicyclo[3.1.0]hexan-3-yl)-4-(3-chloro-4-methoxy-benzyloxy)-N-[(trans)-4-hydroxycyclohexyl]pyrimidine-5-carboxamide]",–,"Effects on penis length, AUC (mm × min) [2, 11]: 191.5 mm × min; half-life ([6]; iv, 2 mg/kg): 1.02 h; half-life ([6]; po, 4 mg/kg): 1.59 h"
0.186,"COc1ccc(COc2nc(N3CCC4(CC3)CC4)ncc2C(=O)NCc2ccccn2)cc1Cl [Compound 9, 4-(3-chloro-4-methoxybenzyloxy)-N-(pyridin-2-ylmethyl)-2-(6-azaspiro[2.5]octan-6-yl)pyrimidine-5-carboxamide]",–,–
0.935,"COc1ccc(COc2nc(N3CCC4(CC3)CC4)ncc2C(=O)NCCN2CCOCC2)cc1Cl [Compound 11, 4-(3-chloro-4-methoxybenzyloxy)-N-(2-morpholinylethyl)-2-(6-azaspiro[2.5]octan-6-yl)pyrimidine-5-carboxamide]",–,–
0.213,"COc1ccc(COc2nc(N3CC4CC4C3)ncc2C(=O)NCCN2CCOCC2)cc1Cl (stereo not drawn) [Compound 13, 2-(3-azadicyclo[3.1.0]hexan-3-yl)-4-(3-chloro-4-methoxy-benzyloxy)-N-(2-morpholinylethyl)pyrimidine-5-carboxamide]",–,–
1.44,"COc1ccc(COc2nc(N3CCC4(CC4)C3)ncc2C(=O)NCc2ncccn2)cc1Cl [Compound 18, 4-(3-chloro-4-methoxybenzyloxy)-N-(pyrimidin-2-ylmethyl)-2-(5-azaspiro[2.4]heptan-5-yl)-pyrimidine-5-carboxamide]",–,–
–,"COc1ccc(COc2nc(N3CCCC34CC4)ncc2C(=O)N[C@H]2CC[C@H](O)CC2)cc1Cl [Compound 20, 4-(3-chloro-4-methoxybenzyloxy)-N-[(trans)-4-hydroxycyclohexyl]-2-(4-azaspiro[2.4]heptan-4-yl)pyrimidine-5-carboxamide]",0.87,–
–,CCCc1nn(C)c2c(=O)[nH]c(-c3cc(S(=O)(=O)N4CCN(C)CC4)ccc3OCC)nc12 [Sildenafil],–,inhibition of PDE-6 [3]: inhibit PDE-6 to some extent
–,CN1CC(=O)N2[C@H](c3ccc4c(c3)OCO4)c3[nH]c4ccccc4c3C[C@@H]2C1=O [Tadalafil],–,half-life in human body [4]: about 16 h
–,CCCc1nc(C)c2c(=O)[nH]c(-c3cc(S(=O)(=O)N4CCN(CC)CC4)ccc3OCC)nn12 [Vardenafil],–,inhibition of PDE-6 [3]: inhibit PDE-6 to some extent

Structure (SMILES),"IC50 [1, 13] [nM]","half-life ([6]; iv, 1 mg/kg) [h]",further results
"COc1ccc(COc2nc(N3C4CCC3COC4)ncc2C(=O)NCc2ccccc2)cc1Cl [Compound 2, N-benzyl-2-(3-oxa-8-azadicyclo[3.2.1]octan-8-yl)-4-(3-chloro-4-methoxybenzyloxy)pyrimidine-5-carboxamide]",4.01,–,t1/2 (h) PO [7]: No; half-life [8]: 1.51 h
"COc1ccc(COc2nc(N3CCC4(CC3)CC4)ncc2C(=O)NCc2ncccn2)cc1Cl [Compound 8, 4-(3-chloro-4-methoxybenzyloxy)-N-(pyrimidin-2-ylmethyl)-2-(6-azaspiro[2.5]octan-6-yl)pyrimidine-5-carboxamide]",0.476,1.34,–
"COc1ccc(COc2nc(N3CCC4(CC3)CC4)ncc2C(=O)NCc2ccccc2)cc1Cl [Compound 10, N-benzyl-4-(3-chloro-4-methoxybenzyloxy)-2-(6-azaspiro[2.5]octan-6-yl)pyrimidine-5-carboxamide]",1.14,2.35,–
"COc1ccc(COc2nc(N3CCC4(CC3)CC4)ncc2C(=O)N[C@H]2CC[C@H](O)CC2)cc1Cl [Compound 12, 4-(3-chloro-4-methoxybenzyloxy)-N-[(trans)-4-hydroxycyclohexyl]-2-(6-azaspiro[2.5]octan-6-yl)pyrimidine-5-carboxamide]",0.719,1.44,"half-life ([6]; po, 1 mg/kg): 1.94 h"
"COc1ccc(COc2nc(N3CCCC34CC4)ncc2C(=O)NCc2ccccc2)cc1Cl [Compound 14, N-benzyl-4-(3-chloro-4-methoxybenzyloxy)-2-(4-azaspiro[2.4]heptan-4-yl)-pyrimidine-5-carboxamide]",1.98,2.21,"Effects on penis length, AUC (mm × min) [2, 11]: 290.1 mm × min"
"COc1ccc(COc2nc(N3CCC4(CC4)C3)ncc2C(=O)NCc2ccccc2)cc1Cl [Compound 15, N-benzyl-4-(3-chloro-4-methoxybenzyloxy)-2-(5-azaspiro[2.4]heptan-5-yl)-pyrimidine-5-carboxamide]",0.119,3.32,"Effects on penis length, AUC (mm × min) [2, 12]: 339.3 mm × min"
"COc1ccc(COc2nc(N3CCC4(CC4)C3)ncc2C(=O)NCc2ccc(F)cc2)cc1Cl [Compound 17, 4-(3-chloro-4-methoxybenzyloxy)-N-(4-fluorobenzyl)-2-(5-azaspiro[2.4]heptan-5-yl)pyrimidine-5-carboxamide]",2.08,1.64,"Effects on penis length, AUC (mm × min) [2, 10]: 300.9 mm × min; half-life ([6]; po, 2 mg/kg): 3.26 h"
"COc1ccc(COc2nc(N3CCC4(CC4)C3)ncc2C(=O)N[C@H]2CC[C@H](O)CC2)cc1Cl [Compound 19, 4-(3-chloro-4-methoxybenzyloxy)-N-[(trans)-4-hydroxycyclohexyl]-2-(5-azaspiro[2.4]heptan-5-yl)-pyrimidine-5-carboxamide]",4.08,1.17,"Effects on penis length, AUC (mm × min) [2, 9]: 523.3 mm × min; half-life ([6]; po, 2 mg/kg): 1.97 h"
